Legend:
[1] = tested on: recombinant soluble human CD73; test: Radiometric CD73 inhibition assay, recombinant soluble human CD73; type: biochemical; conditions: human vs rat CD73 Ki, Table 5
Protocol: The cDNA for the soluble human CD73 (Genbank accession no. NM_002526) was obtained from Prof. Dr. Norbert Sträter (University of Leipzig, Germany) (3). […] Sf9 insect cells were grown in Insect-[…] media (#: BE12-[…], Lonza, Switzerland) with 10 mg/l gentamicin and split at a ratio of 1:3 every fourth day. For transfection, cells were seeded into cell culture flasks (25 cm^2) at 60-70% confluence. 100 μl of cell medium and 1 μl of the vector DNA (1000 ng/μ1) were mixed with 2.5 μl of baculovirus genomic ProEasyTM vector DNA (AB vector, CA, USA) and combined with premixed 100 μl of cell medium and 8 μl of CellfectinTM II Reagent (Thermo Fisher Scientific, MA, USA). […] The cells were incubated for 30 min at rt, and for further 4 days at 27° C. Cells from the transfection procedure were detached from the bottom of the flasks and centrifuged for 5 min at 2000 g. 1.5 ml of the supernatant (viral stock) was added to 75 cm^2 cell culture flasks containing Sf9 cells (60-70% confluence), and the cells were incubated for four days at 27° C. Then 1.5 ml of the supernatant were taken and added to uninfected Sf9 cells in a 75 cm^2 flask. This was repeated five more times, using more cells and larger flasks after the third round of infections (150 cm^2 to which 3.0 ml of supernatant were added). The stock P8 was finally used for infection of the cells. For protein expression, 3 ml of the virus solution were used to infect 150 ml of cell media containing 2×10^6 cells/ml in a 500 ml Erlenmeyer flask, and they were incubated for 4 days at 27° C. with shaking (150 rpm). Then, cell suspensions were transferred to 50 ml falcon tubes and centrifuged at 15 min at 5000 g at 4° C. The supernatants were subjected to ultrafiltration using Amicon® Ultra-15, 10 kDa cut-off (Merck Millipore, MA, USA) at 5000 g for 15-30 min at 4° C. The concentrated protein was purified with HisPurTM Ni^2+-NTA spin columns (#: 88226, Thermo Fisher Scientific, MA, USA). The elution of the columns was performed as recommended in the instruction manual with adjusting the incubation time for protein binding to 1 h at 4° C. with an end-over-end mixer and an additional incubation step of 5 min with the elution buffer before eluting. Eluates were pooled and dialyzed (Membra-Cer, 14 kDa cut-off, 250 mm×44 mm×0.02 mm; Carl Roth, Germany) at 4° C. in 25 mM Tris, pH 7.4, with a volume adjusted to 40 times the volume of the elution fraction. […] The enzyme was aliquoted and stored at -80° C. until use.

[2] = biological target: T1, CD73 in human tonsillary tissue (Homo sapiens, UniProt P21589); test: Human tonsillar CD73-mediated AMPase activity in tonsil cryosections; type: biochemical; conditions: 1, 10, and 100 nM; mean pixel intensity, FIG. 10
T1 construct: Palatine tonsils were obtained from adult patients with chronic tonsillitis; from tissue; host or cells: human palatine tonsil cryosections
T1 sequence (P21589 27-549): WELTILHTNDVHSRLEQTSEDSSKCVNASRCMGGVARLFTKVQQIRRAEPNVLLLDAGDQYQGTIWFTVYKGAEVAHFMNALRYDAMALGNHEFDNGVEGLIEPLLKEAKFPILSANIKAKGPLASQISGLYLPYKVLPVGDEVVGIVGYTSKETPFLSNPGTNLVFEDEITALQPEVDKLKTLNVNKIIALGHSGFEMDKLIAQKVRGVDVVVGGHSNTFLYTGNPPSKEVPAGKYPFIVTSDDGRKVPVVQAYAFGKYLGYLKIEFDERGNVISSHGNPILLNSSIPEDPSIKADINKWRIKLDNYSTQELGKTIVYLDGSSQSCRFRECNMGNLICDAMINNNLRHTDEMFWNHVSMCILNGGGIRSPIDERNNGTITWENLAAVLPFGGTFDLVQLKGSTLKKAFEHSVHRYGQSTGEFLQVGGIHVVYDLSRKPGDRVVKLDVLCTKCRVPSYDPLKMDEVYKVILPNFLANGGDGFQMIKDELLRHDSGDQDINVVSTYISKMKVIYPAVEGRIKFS
Protocol: Palatine tonsils were obtained from adult patients with chronic tonsillitis undergoing routine tonsillectory. The tonsils were washed with phisiological salt solution, embedded in the cyro-mold with Tissue-Tek O.C.T. compound (Sakura Finetek Europe B.V., the Nethelands), cut using a cryostat and stored at −80° C. Tonsil cryoselctions were preincubated for 30 min in Trizma maleate sucrose buffer supplemented with the alkaline phosphatase inhibitor levamisole and different concentrations of compound 9h. The enzymatic reaction was then performed for 45 min at 37° C. in a final volume of […] of TMSB-buffered substrate solution containing Pb (NO3)2, CaCl2, and tested CD73 inhibitor at the same concentration. The lead orthophosphate precipitated in the course of nucleotidase activity was visualized as a brown deposit by incubating sections in (NH3)2S for 30s, followed by three washed in Trizma-maleate buffer for 5 min each. Slides were mounted with Aquatex medium (Merck, Germany). Multiple images of adjacent tissue areas were captured using a slide scanner and further stitched to a larger overview. The images of control and treated tissues were captured at identical exposure times and other settings and further acquired in parallel. Nucleotidase activities were quantified as mean pixel intensities after grayscale conversion.

[3] = biological target: T2, recombinant soluble rat CD73 (Rattus norvegicus, UniProt P21588); test: Radiometric rat ecto-5′-nucleotidase (CD73) assay with [3H]AMP
T2 sequence (P21588 29-551 limits assumed): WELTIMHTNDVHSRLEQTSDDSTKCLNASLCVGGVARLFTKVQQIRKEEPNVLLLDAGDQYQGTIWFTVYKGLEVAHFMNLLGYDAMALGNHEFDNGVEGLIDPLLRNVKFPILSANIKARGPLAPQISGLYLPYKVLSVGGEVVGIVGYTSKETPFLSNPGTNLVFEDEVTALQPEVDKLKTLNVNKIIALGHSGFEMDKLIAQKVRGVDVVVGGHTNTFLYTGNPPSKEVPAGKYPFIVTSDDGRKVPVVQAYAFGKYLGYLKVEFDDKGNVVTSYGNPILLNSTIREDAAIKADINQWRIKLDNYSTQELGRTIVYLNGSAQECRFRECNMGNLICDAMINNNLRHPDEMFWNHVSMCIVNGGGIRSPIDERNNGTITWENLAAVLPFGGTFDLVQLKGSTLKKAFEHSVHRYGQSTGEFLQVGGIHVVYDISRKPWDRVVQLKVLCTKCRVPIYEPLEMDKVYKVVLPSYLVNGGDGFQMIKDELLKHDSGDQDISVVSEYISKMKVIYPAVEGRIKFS
Protocol: After the enzymatic reaction, the substrate was separated from its product [2,8-^3H]adenosine by precipitation with lanthanum chloride followed by filtration through glass fiber filters (34). […] Ki values were calculated from the obtained IC50 values using the Cheng-Prusoff equation (6,7).
The assay was performed as previously described (41) using recombinant rat CD73 expressed in Sf9 insect cells (33). […] The mixture was incubated for 25 min at 37° C. The reaction was stopped by adding 500 μL of ice-cooled precipitation buffer containing 100 mM aqueous lanthanum chloride and 100 mM aqueous sodium acetate solution (pH 4.0). After 30 min, the precipitation was filtered through GF/B glass fiber filters (M-48, Brandel, Gaithersburg, Md., USA). After washing three times, 4 mL of the scintillation cocktail ULTIMA Gold XR was added and then quantified by scintillation counting (TRICARB 2900 TR, Packard/PerkinElmer). Three separate inhibition assays were performed in triplicate, concentration-response curves were fitted, and Ki values were calculated.
The assay was performed essentially as previously described.^D Stock solutions (10 mM) of the compounds were prepared in demineralized water and further dilutions were performed in assay reaction buffer (25 mM Tris, 140 mM sodium chloride, 25 mM sodium dihydrogen phosphate, pH 7.4). 10 μL of the inhibitor solution were added to 70 μL of assay reaction buffer. […] The enzymatic reaction was performed for 25 min at 37° C. in a shaking water bath. […] After the precipitation was completed (after at least 30 min on ice), the mixture was separated by filtration through GF/B glass fiber filters using a cell harvester (M-48, Brandel, Gaitherburg, Md., USA). After washing each reaction vial three times with 400 μl of cold (4° C.) demineralized water, 5 ml of the scintillation cocktail (ULTIMA Gold XR, PerkinElmer, MA, USA) was added and radioactivity was measured by scintillation counting (TRICARB 2900 TR, Packard/PerkinElmer; counting efficacy: 49-52%). Two controls were included and measured as duplicates. One reaction was performed without the inhibitor resulting in 100% enzyme activity (positive control) and one was incubated without the inhibitor and the enzyme and served as background control. The resulting data were subtracted from the background and were normalized with to the positive control. The results were plotted, and concentration-inhibition curves were fitted with GraphPad Prism 5 (GraphPad Software, La Jolla, USA).
After 30 min, the precipitation was filtered through GF/B glass fiber filters (M-48, Brandel, Gaithersburg, Md., USA). After washing three times, 4 mL of the scintillation cocktail ULTIMA Gold XR was added and then quantified by scintillation counting (TRICARB 2900 TR, Packard/PerkinElmer). Three separate inhibition assays were performed in triplicate, concentration-response curves were fitted, and K, values were calculated.

[4] = biological target: T3, membrane-bound CD73 (membrane preparation of MDA-MB-231 cells) (Homo sapiens, UniProt P21589); test: Radiometric CD73 inhibition assay, membrane preparations of MDA-MB-231 cells
T3 sequence (P21589 27-549): T1 sequence (P21589 27-549)
Protocol: After the enzymatic reaction, the substrate was separated from its product [2,8-^3H]adenosine by precipitation with lanthanum chloride followed by filtration through glass fiber filters (34). For compounds that inhibited CD73 activity by more than 50% at an initial screening concentration of 1 μM, full concentration-response curves were determined in at least three separate experiments performed in duplicates using 10 different concentrations of inhibitor. Ki values were calculated from the obtained IC50 values using the Cheng-Prusoff equation (6,7). […]
The assay was performed essentially as previously described.^D Stock solutions (10 mM) of the compounds were prepared in demineralized water and further dilutions were performed in assay reaction buffer (25 mM Tris, 140 mM sodium chloride, 25 mM sodium dihydrogen phosphate, pH 7.4). […] After washing each reaction vial three times with 400 μl of cold (4° C.) demineralized water, 5 ml of the scintillation cocktail (ULTIMA Gold XR, PerkinElmer, MA, USA) was added and radioactivity was measured by scintillation counting (TRICARB 2900 TR, Packard/PerkinElmer; counting efficacy: 49-52%). Two controls were included and measured as duplicates. […]

[5] = biological target: T4, human P2Y6 receptor (Homo sapiens, UniProt Q15077); test: Human P2Y6 receptor assay, calcium mobilization in 1321N1 astrocytoma cells; type: cell-based; conditions: 1321N1 cells expressing human P2Y6, read-out: hP2Y6 EC50 ± SEM
T4 construct: expressed in transfected cells; host or cells: 1321N1 human astrocytoma cells
Protocol: Calcium mobilization induced by the nucleotide derivatives was measured in a human astrocytoma cell line (1321N1) expressing the human P2Y6 receptor, as previously described (33).

[6] = biological target: T5, human P2Y14 receptor (Homo sapiens, UniProt Q15391); test: Human P2Y14 receptor assay, inhibition of binding of a fluorescent antagonist, flow cytometry in CHO cells; conditions: CHO cells expressing human P2Y14, read-out: hP2Y14 IC50 ± SEM
T5 construct: expressed in transfected cells; host or cells: CHO cells
T5 sequence (Q15391 1-338): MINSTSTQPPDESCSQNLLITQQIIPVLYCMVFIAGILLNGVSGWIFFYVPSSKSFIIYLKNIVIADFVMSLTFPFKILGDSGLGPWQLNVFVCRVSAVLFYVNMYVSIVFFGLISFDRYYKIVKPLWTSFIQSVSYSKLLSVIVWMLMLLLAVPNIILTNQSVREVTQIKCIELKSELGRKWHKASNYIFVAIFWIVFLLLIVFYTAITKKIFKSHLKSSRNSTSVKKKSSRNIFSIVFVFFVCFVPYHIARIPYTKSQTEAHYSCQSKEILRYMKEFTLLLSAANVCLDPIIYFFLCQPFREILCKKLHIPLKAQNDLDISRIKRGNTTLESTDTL
Protocol: Inhibition of binding of a high affinity fluorescent antagonist was measured using flow cytometry in a CHO cell line expressing the human P2Y14 receptor, as previously described (34).

T4 sequence (Q15077 whole entry): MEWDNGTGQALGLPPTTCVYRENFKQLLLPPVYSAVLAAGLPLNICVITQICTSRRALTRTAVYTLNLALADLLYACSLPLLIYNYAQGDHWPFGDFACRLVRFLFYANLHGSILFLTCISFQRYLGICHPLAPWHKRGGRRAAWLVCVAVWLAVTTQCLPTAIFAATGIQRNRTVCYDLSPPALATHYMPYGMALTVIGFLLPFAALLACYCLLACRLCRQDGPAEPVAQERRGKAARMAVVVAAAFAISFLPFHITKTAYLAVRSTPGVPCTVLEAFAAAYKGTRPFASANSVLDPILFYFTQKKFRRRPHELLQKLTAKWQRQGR

For Cn1c(=O)n([C@@H]2O[C@H](COP(=O)(O)CP(=O)(O)O)[C@@H](O)[C@H]2O)cc/c1=N/OCc1ccccc1 [Compound 9h, N^4-[O-(4-Benzyloxy)]-3-methyl-cytidine-5′-O-[(phosphonomethyl)phosphonic acid]], which “potency at human CD73 as compared to the rat enzyme” value [1] is on record?
Its value is “somewhat less potent”.

And the “inhibition of the catalytic activity of CD73 in human tonsillary tissue” value [2]?
Its value is “inhibited the catalytic activity of CD73 in a concentration-dependent manner”.

What about the Ki [3] of the same molecule?
Its Ki is 0.00367 µM.

And the Ki [4]?
The Ki was 0.00796 µM.

What about the EC50 [5] of the same molecule?
The EC50 was over 3000 µM.

What about the IC50 [6] of the same molecule?
The IC50 was over 3000 µM.

— US20210169911A1, “PURINE AND PYRIMIDINE NUCLEOTIDES AS ECTO-5'-NUCLEOTIDASE INHIBITORS” (The United States of America,as represented by the …, priority 2018, published 2021)
